# Patent publication US20080040819A1, “Methods of identifying agents for treatment of schizophrenia and related disorders” (Wyeth, priority 2006, published 2008)
# Where two headings read alike, the source gives them in different places.
# What was measured:
# GPR88 KO and WT mice [1] = test: Phencyclidine-stimulated locomotor hyperactivity; format: in vivo
# [2] = biological target: T1, striatal dopamine D2 receptors (Mus musculus, UniProt P61168); test: [^3H]spiperone binding to striatal membrane preparations; set-up: species or system mice; settings: pool of 10
# T1 construct: from tissue; host or cells: mouse striatum (membrane preparation / homogenate)
# Experimental: Striata from 10 mice (male and female, WT & GPR88 KO) were pooled and homogenized in a motor-driven POLYTRON™ homogenizer (Kinematica AG, Newark, N.J.) at setting six for 10 seconds in 3 mL per 100 mg of wet tissue in 50 mM Tris-HCl buffer, pH 7.4, containing 120 mM NaCl, 5 mM KCl, 1.5 mM CaCl2, 4 mM MgCl2, and 1 mM EDTA. […] The binding of each concentration of radioligand was determined in duplicate. Incubations were carried out at room temperature for 120 minutes. The final concentration of the membrane protein in each binding assay was approximately 70 μg/ml. Butaclamol (+), (10 μM), (Sigma-Aldrich, St. Louis, Mo.) was used to define the nonspecific binding. The incubations were terminated by rapid filtration using a Wallac Tomtec harvester (Waltham, Mass.) and buffer-presoaked glass fiber filter mats (GF/B, Whatman Inc. Florham Park, N.J.). […] The radioactivity of the filters was then counted in a Wallac 1205 scintillation counter (Perkin Elmer Life and Analytical Sciences).
# The estimates of Bmax (the number of available binding receptors) and Kd (the dissociation constant) were calculated by fitting the specific binding data with nonlinear regression using GraphPad PRISM™ data analysis software (GraphPad Software, San Diego, Calif.).
# GPR88 KO and WT mice [3] = test: Amphetamine-stimulated locomotor hyperactivity; format: in vivo; settings: 3 mg/kg i.p., 40-90 min
# Experimental: The amphetamine-stimulated locomotor hyperactivity assay is another type of assay to model the neuropathological states in schizophrenia, similar to the hyperdopaminergia in the ventral striatum. To measure spontaneous activity and amphetamine-stimulated locomotor hyperactivity, the mice were individually placed in Opto-Veramax-3 monitor cages (Columbus Instruments, Columbus, Ohio) and allowed to habituate for 30 minutes with room light and white noise on. After habituation, each mouse was injected with amphetamine (AMPH, 3 mg/kg) in the intraperitoneum. During the first 30 minutes, the spontaneous activity was recorded every 10 minutes. After amphetamine administration, amphetamine-stimulated locomotor hyperactivity was measured every 10 minutes over a 60 minutes time span by the activity monitor. Accuscan Versamax and Versadat software (Columbus Instruments, Columbus, Ohio) were used to convert the infrared beam breaks into horizontal activity counts. […] Males and females were analyzed separately.
# striatal dopamine = test: In vivo striatal microdialysis; settings: 3 mg/kg i.p., male and female GPR88 KO and WT mice, dialysates for 3 hours
# Experimental: Chromatographic separations were performed using a Capcell PAK™, Strong Cation Exchange columns (5 μm UG80, 1.5×150 mm; Shiseido, Phenomenex, USA). The mobile phase comprised (mM) 13 Na2HPO4, 87 NaH2PO4, 0.1 EDTA and 20% methanol, was adjusted to pH 6 and delivered at 0.2 ml/minutes at 40° C.
# GPR88 KO and WT mice [4] = test: Apomorphine-induced climbing and stereotypy; format: in vivo
# Experimental: The GPR88 KO and WT mice were acclimated to a wire cage (cylindrical ½″×½″ mesh with the dimensions of 4½″ d×5½″ h) for at least 2 hours before testing to allow proper habituation. […] (+ present, − absent). Readings were repeated every 5 minutes during a 30-minute test session.
# The behavioral assessment was conducted over three conditions in succession: (1) an evaluation of the response to a subcutaneous vehicle (0.25% TWEEN® 80) injection to establish a baseline; (2) followed by an evaluation of the response to a dose of 0.3 mg/kg subcutaneous apomorphine injection; (3) followed by an evaluation of the response to 1 mg/kg subcutaneous apomorphine injection. Behavioral observation began 5 minutes after each injection. Vehicle was given at T0 minutes with observational assessment from T5-T35 minutes and habituation followed from T35-T65 minutes.
# At T65, the 0.3 mg/kg dose of apomorphine was administered. Behavioral observation for the 0.3 mg/kg dose of apomorphine was from T70-T100, followed by another habituation from T100-T130 minutes.
# At T130 min, the 1.0 mg/kg dose of apomorphine was administered and then the mice were scored from T135-T165 min. For each subject, the climbing scores were totaled for each observational period (maximum=12 per animal). Stereotypy scores were also summed up (maximum=6 per animal). […] Males and females were analyzed separately.
# dopamine D2 receptors = dopamine D2 receptors (Mus musculus, UniProt P61168); settings: 1 mM dopamine, striatal membranes
# Experimental: Briefly, striata were collected from the mice (9 GPR88 KO or WT) and frozen at 80° C. until use. The tissue was homogenized in 1:100 volume (wet weight/volume) of ice-cold K-HEPES buffer (20 mM, pH=7.6), containing 7 mM of MgCl2, 100 mM of NaCl, 1 mM of EDTA, and 1 mM of DTT (buffer A), and centrifuged at 45,000 g for 10 minutes at 4° C. The membrane pellet was resuspended in 100 volumes (w/v) of fresh buffer A and re-centrifuged under the same conditions.
# The incubation was started by addition of [^35S]GTPγS (final concentration 0.5 nM) and proceeded for 90 minutes at 30° C. The assay was terminated by filtration through a filter plate (GF/B, Perkin Elmer Life and Analytical Sciences) with five washings of cold buffer A (350 μl). The filter plate was air-dried and the radioactivity content of the filters was counted in 25 μl scintillation cocktail MICROSCINT™ 20 (Perkin Elmer Life and Analytical Sciences) by a Perkin Elmer TopCount NXT scintillation counter.
# GPR88 KO and WT mice [5] = test: Antipsychotic block of apomorphine-induced climbing and stereotypy; format: in vivo
# Experimental: Observation and scoring for climbing and stereotypy were performed as described in Example 6. […] Males and females were analyzed separately. […] For graphical representation, the data was normalized to the amount of climbing and stereotypy shown by the vehicle treated control group.
# GPR88 KO and WT mice [6] = test: Haloperidol-induced catalepsy; format: in vivo; settings: 1 mg/kg i.p., 30-120 minutes, male and female mice
# Experimental: Maintenance of this position was considered catalepsy. […] Males and females were analyzed separately.
# GPR88 KO and WT mice [7] = settings: 0.54 mg/kg i.p. 30 minutes before testing, PPI averaged across 3 dB levels
# Experimental: To detect potential phenotypic deficits in the GPR88 knockout mice, they were first evaluated for startle habituation. In brief, mice were tested using the SR-LAB (San Diego Instruments, San Diego, Calif.) system. Each system consists of a ventilated sound attenuated chamber containing a stabilimeter consisting of a Plexiglas cylinder (12.5 cm length, 3.5 cm diameter) mounted on a Plexiglas frame. Acoustic stimuli were delivered through a speaker mounted in the enclosure ceiling, that was 27 cm above the cylinder. Startle responses were transduced by a piezoelectric accelerometer mounted beneath the frame. Output signals were digitized and rectified as consecutive 1-millisecond (msec) readings (a total of 65 were recorded, and startle response was expressed as an averaged response across these samples) on a computer using the San Diego Instrument software. Mice were placed individually in the chamber for a 5-minute acclimation period at a background noise level of 64 dB.
# Prepulse inhibition was measured immediately following the startle sensitivity test. […] Percentage prepulse inhibition was calculated as 100 minus the ratio of the average startle response observed at each prepulse+pulse trial relative to the pulse alone stimulus, times 100. The percentage prepulse at across dB levels was analyzed by repeated-measures ANOVA. […] Males and females were analyzed separately. […]
# [8] = GPR88 KO and WT female mice, 0.3 mg/kg haloperidol
# [9] = male WT mice, 0.54 and 1.0 mg/kg haloperidol
# T1 sequence (P61168 whole entry): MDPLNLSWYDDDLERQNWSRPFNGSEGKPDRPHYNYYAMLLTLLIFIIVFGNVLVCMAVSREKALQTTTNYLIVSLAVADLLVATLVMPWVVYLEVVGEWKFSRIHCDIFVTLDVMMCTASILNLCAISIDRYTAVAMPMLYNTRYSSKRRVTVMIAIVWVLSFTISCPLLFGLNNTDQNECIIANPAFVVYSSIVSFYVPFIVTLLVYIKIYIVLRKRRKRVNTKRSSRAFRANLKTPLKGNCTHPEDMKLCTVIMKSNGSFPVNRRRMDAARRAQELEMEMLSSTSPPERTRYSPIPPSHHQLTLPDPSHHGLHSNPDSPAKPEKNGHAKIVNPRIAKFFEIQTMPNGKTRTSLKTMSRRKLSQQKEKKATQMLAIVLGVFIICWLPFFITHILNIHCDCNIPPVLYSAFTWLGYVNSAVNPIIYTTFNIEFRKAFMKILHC
# dopamine D2 receptors, sequence (P61168 whole entry): as above
compound,measurement,setting,value
"c1ccc(C2(N3CCCCC3)CCCCC2)cc1 [PCP, phencyclidine]",PCP-stimulated locomotor activity,"GPR88 KO and WT mice [1]; female WT and GPR88 KO mice, 1.0 mg/kg",Neither of the genotypes responded
same,PCP-stimulated locomotor activity,"GPR88 KO and WT mice [1]; female WT and GPR88 KO mice, 1.7 mg/kg or 3.0 mg/kg",increased locomotor activity
same,PCP-stimulated locomotor activity,"GPR88 KO and WT mice [1]; male WT and GPR88 KO mice, highest dose 3 mg/kg i.p.",increased locomotor activity
same,PCP-stimulated locomotor activity,"GPR88 KO and WT mice [1]; male WT and GPR88 KO mice, lower doses (1.0, 1.7 mg/kg)",Neither of the genotypes responded
O=C(CCCN1CCC2(CC1)C(=O)NCN2c1ccccc1)c1ccc(F)cc1 [[^3H]spiperone],Bmax (number of available binding receptors),[2]; striatal membranes of GPR88 KO mice,1.83 pmol/mg
same,Bmax (number of available binding receptors),[2]; striatal membranes of WT mice,1.34 pmoles/mg protein
CC(N)Cc1ccccc1 (centres unmarked) [amphetamine],locomotor activity after amphetamine administration,GPR88 KO and WT mice [3]; GPR88 KO male mice,significant increase in activity
same,locomotor activity after amphetamine administration,GPR88 KO and WT mice [3]; female mice,significant increase in activity
same,striatal extracellular dopamine after amphetamine,striatal dopamine,significant and equal increase in dopamine
CN1CCc2cccc3c2[C@H]1Cc1ccc(O)c(O)c1-3 [apomorphine],"apomorphine-induced climbing scores, dose effect","GPR88 KO and WT mice [4]; female GPR88 KO and WT mice, 1 mg/kg s.c.",the most climbing
same,"apomorphine-induced stereotypy scores, dose effect","GPR88 KO and WT mice [4]; male GPR88 KO and WT mice, 1 mg/kg s.c.",maximal stereotypy
same,"apomorphine-induced climbing scores, dose effect","GPR88 KO and WT mice [4]; male GPR88 KO and WT mice, vehicle, 0.3 and 1 mg/kg s.c.",climbing increasing with the dose
NCCc1ccc(O)c(O)c1 [dopamine],stimulation of [^35S]GTPγS binding in GPR88 KO mice relative to WT mice,dopamine D2 receptors,twice
O=C(CCCN1CCC(O)(c2ccc(Cl)cc2)CC1)c1ccc(F)cc1 [haloperidol],block of apomorphine-induced climbing,GPR88 KO and WT mice [5]; [8],full block of climbing
same,block of apomorphine-induced stereotypy,GPR88 KO and WT mice [5]; [8],full block of stereotypy
same,"minimal effective dose, apomorphine-induced climbing and stereotypy assay (summary)",GPR88 KO and WT mice [5]; GPR88 KO male mice,0.54 mg/kg
same,"minimal effective dose, apomorphine-induced climbing and stereotypy assay (summary)",GPR88 KO and WT mice [5]; WT male mice,< 0.3 mg/kg
same,block of apomorphine-induced climbing,"GPR88 KO and WT mice [5]; male GPR88 KO mice, 1.0 mg/kg haloperidol",full block of climbing
same,block of apomorphine-induced climbing,GPR88 KO and WT mice [5]; [9],full block of climbing
same,block of apomorphine-induced stereotypy,GPR88 KO and WT mice [5]; [9],full block of stereotypy
same,"catalepsy (percentage of maximum possible catalepsy), GPR88 KO versus WT",GPR88 KO and WT mice [6],equivalent levels of catalepsy
Cc1nc2n(c(=O)c1CCN1CCC(c3noc4cc(F)ccc34)CC1)CCCC2 [risperidone],"percentage prepulse inhibition (PPI), treatment versus vehicle",GPR88 KO and WT mice [7]; male GPR88 KO mice,increasing PPI over untreated
same,"percentage prepulse inhibition (PPI), treatment versus vehicle",GPR88 KO and WT mice [7]; male WT mice,increasing PPI over untreated
